# According to patent publication US9302999B2, “Substituted triazoles as herbicides” (E. I. DU PONT DE NEMOURS AND COMPANY, priority 2012, dated 2016):
# What was measured:
# Type in all cases: in vivo
# [1] = test system: chickweed (common chickweed, Stellaria media); assay: Test D pre-/postemergence: chickweed
# In short: (§1)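 Pre- and postemergence herbicide screen. Soil for pre: silt loam; post medium: peat moss, vermiculite, wetting agent, starter nutrients. Plant stage at post: 1- to 4-leaf. Readout: visual % control, 14–21 days.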
# [2] = test system: field poppy (Papaver rhoeas); assay: Test D pre-/postemergence: field poppy
# In short: as §1
# [3] = test system: field violet (Viola arvensis); assay: Test D pre-/postemergence: field violet
# In short: as §1
# [4] = test system: buckwheat, wild (wild buckwheat, Polygonum convolvulus); assay: Test D pre-/postemergence: buckwheat, wild
# In short: as §1
# [5] = test system: oat, wild (wild oat, Avena fatua); assay: Test D pre-/postemergence: oat, wild
# In short: as §1
# soybean (Glycine max) = assay: Test F pre-/postemergence: soybean; conditions: Preemergence
# In short: (§2)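 Preemergence treatment of seeds sown in silt loam soil, and postemergence treatment of plants 2–18 cm tall (1- to 4-leaf stage), with compounds in non-phytotoxic solvent plus surfactant. Greenhouse 14–21 days, then visual rating versus controls on 0–100 scale (100 = complete control).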
# [6] = test system: crabgrass, Brazil (Brazilian crabgrass, Digitaria horizontalis); assay: Test F pre-/postemergence: crabgrass, Brazil; conditions: Preemergence
# Description: Seeds of plant species selected from corn (Zea mays), soybean (Glycine max), velvetleaf (Abutilon theophrasti), lambsquarters (Chenopodium album), poinsettia, wild (wild poinsettia, Euphorbia heterophylla), pigweed, palmer (palmer pigweed, Amaranthus palmeri), waterhemp (common waterhemp, Amaranthus rudis), surinam grass (Brachiaria decumbens), crabgrass, Brazil (Brazilian crabgrass, Digitaria horizontalis), panicum, fall (fall panicum Panicum dichotomiflorum), crabgrass, large (large crabgrass, Digitaria sanguinalis), foxtail, giant (giant foxtail, Setaria faberii), foxtail, green (green foxtail Setaria viridis), goosegrass (Eleusine indica), ragweed (common ragweed, Ambrosia elatior), barnyardgrass (Echinochloa crus-galli), sandbur (southern sandbur, Cenchrus echinatus), arrowleaf sida (Sida rhombifolia), ryegrass, Italian (Italian ryegrass, Lolium multiflorum), dayflower, VA (Virginia (VA) dayflower, Commelina virginica), field bindweed (Convolvulus arvensis), cocklebur (common cocklebur, Xanthium strumarium), morningglory (Ipomoea coccinea), nightshade (eastern black nightshade, Solanum ptycanthum), kochia (Kochia scoparia), nutsedge, yellow (yellow nutsedge, Cyperus esculentus), johnsongrass (Sorghum halepense), smartweed (ladysthumb smartweed, Polygonum persicaria), and beggarticks (hairy beggarticks, Bidens pilosa), were planted into a silt loam soil and treated preemergence with test chemicals formulated in a non-phytotoxic solvent mixture which included a surfactant. At the same time, plants selected from these crop and weed species and also pigweed (Amaranthus retroflexus), waterhemp_RES1 (ALS/Triazine resistant common waterhemp, Amaranthus rudis) and waterhemp_RES2 (ALS/HPPD resistant common waterhemp, Amaranthus rudis) were planted in pots containing a planting medium comprising spaghnum peat moss, vermiculite, wetting agent and starter nutrients treated with postemergence applications of some of the test chemicals formulated in the same manner. Plants ranged in height from 2 to 18 cm for postemergence treatments (1- to 4-leaf stage).
# Treated plants and controls were maintained in a greenhouse for 14 to 21 days, after which time all species were compared to controls and visually evaluated. Plant response ratings, summarized in Table E, are based on a scale of 0 to 100 where 0 is no effect and 100 is complete control. A dash (-) response means no test result.
# [7] = test system: nightshade (eastern black nightshade, Solanum ptycanthum); assay: Test F pre-/postemergence: nightshade; conditions: Preemergence
# In short: as §2
# [8] = Postemergence, 31 g ai/ha, scale 0 to 100 (0 no effect, 100 complete control)
# [9] = Postemergence, 62 g ai/ha, scale 0 to 100 (0 no effect, 100 complete control)
# [10] = Postemergence, 125 g ai/ha, scale 0 to 100, 0 no effect, 100 complete control
# [11] = Postemergence, 16 g ai/ha, scale 0 to 100
# [12] = Preemergence, 16 g ai/ha, scale 0 to 100, 0 no effect, 100 complete control
# [13] = Preemergence, 31 g ai/ha, scale 0 to 100, 0 no effect, 100 complete control
# [14] = Preemergence, 62 g ai/ha, scale 0 to 100
# [15] = Preemergence, 125 g ai/ha, scale 0 to 100
# [16] = 16 g ai/ha, scale 0 to 100, 0 no effect, 100 complete control
# [17] = 31 g ai/ha, scale 0 to 100, 0 no effect, 100 complete control
compound,measurement,setting,value
Cc1nn(-c2ccc(C(F)(F)F)c(F)c2)nc1Oc1ccnc(C(F)(F)F)c1 [Compound 148],Plant response rating: Chickweed,[1]; [8],70
same,Plant response rating: Chickweed,[1]; [9],80
same,Plant response rating: Chickweed,[1]; [10],90
same,"Plant response rating, Chickweed",[1]; [11],60
same,"Plant response rating, Chickweed",[1]; [12],25
same,"Plant response rating, Chickweed",[1]; [13],60
same,"Plant response rating, Chickweed",[1]; [14],70
same,"Plant response rating, Chickweed",[1]; [15],100
same,Plant response rating: Field Poppy,[2]; [8],100
same,Plant response rating: Field Poppy,[2]; [9],95
same,Plant response rating: Field Poppy,[2]; [10],100
same,"Plant response rating, Field Poppy",[2]; [11],90
same,"Plant response rating, Field Poppy",[2]; [12],10
same,"Plant response rating, Field Poppy",[2]; [13],70
same,"Plant response rating, Field Poppy",[2]; [14],100
same,"Plant response rating, Field Poppy",[2]; [15],95
same,Plant response rating: Field Violet,[3]; [8],95
same,Plant response rating: Field Violet,[3]; [9],95
same,Plant response rating: Field Violet,[3]; [10],95
same,"Plant response rating, Field Violet",[3]; [11],90
same,"Plant response rating, Field Violet",[3]; [12],90
same,"Plant response rating, Field Violet",[3]; [13],100
same,"Plant response rating, Field Violet",[3]; [14],95
same,"Plant response rating, Field Violet",[3]; [15],100
same,"Plant response rating: Buckwheat, Wild",[4]; [8],60
same,"Plant response rating: Buckwheat, Wild",[4]; [9],75
same,"Plant response rating: Buckwheat, Wild",[4]; [10],70
same,"Plant response rating, Buckwheat, Wild",[4]; [11],60
same,"Plant response rating, Buckwheat, Wild",[4]; [12],20
same,"Plant response rating, Buckwheat, Wild",[4]; [13],30
same,"Plant response rating, Buckwheat, Wild",[4]; [14],65
same,"Plant response rating, Buckwheat, Wild",[4]; [15],50
same,"Plant response rating: Oat, Wild",[5]; [8],15
same,"Plant response rating: Oat, Wild",[5]; [9],30
same,"Plant response rating: Oat, Wild",[5]; [10],55
same,"Plant response rating, Oat, Wild",[5]; [11],5
same,"Plant response rating, Oat, Wild",[5]; [12],5
same,"Plant response rating, Oat, Wild",[5]; [13],20
same,"Plant response rating, Oat, Wild",[5]; [14],30
same,"Plant response rating, Oat, Wild",[5]; [15],65
same,"Plant response rating, Soybean",soybean (Glycine max); [16],0
same,"Plant response rating, Soybean",soybean (Glycine max); [17],0
same,"Plant response rating, Soybean","soybean (Glycine max); 125 g ai/ha, scale 0 to 100",20
same,"Plant response rating, Soybean","soybean (Glycine max); 250 g ai/ha, scale 0 to 100",40
same,"Plant response rating, Crabgrass, Brazil",[6]; [16],100
same,"Plant response rating, Crabgrass, Brazil",[6]; [17],100
same,"Plant response rating, Crabgrass, Brazil","[6]; 62 g ai/ha, scale 0 to 100",100
same,"Plant response rating, Crabgrass, Brazil","[6]; 125 g ai/ha, scale 0 to 100",100
same,"Plant response rating, Crabgrass, Brazil","[6]; 250 g ai/ha, scale 0 to 100",100
same,"Plant response rating, Nightshade",[7]; [16],0
same,"Plant response rating, Nightshade",[7]; [17],0
same,"Plant response rating, Nightshade","[7]; 125 g ai/ha, scale 0 to 100",98
same,"Plant response rating, Nightshade","[7]; 250 g ai/ha, scale 0 to 100",98
CCc1nn(-c2ccc(C(F)(F)F)cc2)nc1Cc1ccnc(C(F)(F)F)c1 [Compound 155],Plant response rating: Chickweed,[1]; [8],70
same,Plant response rating: Chickweed,[1]; [9],75
same,Plant response rating: Chickweed,[1]; [10],100
same,"Plant response rating, Chickweed",[1]; [11],65
same,"Plant response rating, Chickweed",[1]; [12],35
same,"Plant response rating, Chickweed",[1]; [13],50
same,"Plant response rating, Chickweed",[1]; [14],100
same,"Plant response rating, Chickweed",[1]; [15],100
same,Plant response rating: Field Poppy,[2]; [8],95
same,Plant response rating: Field Poppy,[2]; [9],100
same,Plant response rating: Field Poppy,[2]; [10],100
same,"Plant response rating, Field Poppy",[2]; [11],80
same,"Plant response rating, Field Poppy",[2]; [12],80
same,"Plant response rating, Field Poppy",[2]; [13],95
same,"Plant response rating, Field Poppy",[2]; [14],95
same,"Plant response rating, Field Poppy",[2]; [15],100
same,Plant response rating: Field Violet,[3]; [8],100
same,Plant response rating: Field Violet,[3]; [9],100
same,Plant response rating: Field Violet,[3]; [10],95
same,"Plant response rating, Field Violet",[3]; [11],95
same,"Plant response rating, Field Violet",[3]; [12],90
same,"Plant response rating, Field Violet",[3]; [13],95
same,"Plant response rating, Field Violet",[3]; [14],95
same,"Plant response rating, Field Violet",[3]; [15],100
same,"Plant response rating: Buckwheat, Wild",[4]; [8],70
same,"Plant response rating: Buckwheat, Wild",[4]; [9],70
same,"Plant response rating: Buckwheat, Wild",[4]; [10],75
same,"Plant response rating, Buckwheat, Wild",[4]; [11],75
same,"Plant response rating, Buckwheat, Wild",[4]; [12],10
same,"Plant response rating, Buckwheat, Wild",[4]; [13],25
same,"Plant response rating, Buckwheat, Wild",[4]; [14],50
same,"Plant response rating, Buckwheat, Wild",[4]; [15],70
same,"Plant response rating: Oat, Wild",[5]; [8],20
same,"Plant response rating: Oat, Wild",[5]; [9],55
same,"Plant response rating: Oat, Wild",[5]; [10],75
same,"Plant response rating, Oat, Wild",[5]; [11],10
same,"Plant response rating, Oat, Wild",[5]; [12],5
same,"Plant response rating, Oat, Wild",[5]; [13],50
same,"Plant response rating, Oat, Wild",[5]; [14],15
same,"Plant response rating, Oat, Wild",[5]; [15],60
same,"Plant response rating, Soybean","soybean (Glycine max); 125 g ai/ha, scale 0 to 100",30
same,"Plant response rating, Soybean","soybean (Glycine max); 250 g ai/ha, scale 0 to 100",30
same,"Plant response rating, Crabgrass, Brazil","[6]; 62 g ai/ha, scale 0 to 100",100
same,"Plant response rating, Crabgrass, Brazil","[6]; 125 g ai/ha, scale 0 to 100",100
same,"Plant response rating, Crabgrass, Brazil","[6]; 250 g ai/ha, scale 0 to 100",100
same,"Plant response rating, Nightshade","[7]; 125 g ai/ha, scale 0 to 100",100
same,"Plant response rating, Nightshade","[7]; 250 g ai/ha, scale 0 to 100",100
